Assays:
[1] = biological target: T1, recombinant N-terminal MLH1 (residues 15-340) (Homo sapiens, UniProt P40692); experiment: Fluorescence Polarisation Assay for MLH1; type: binding; settings: fluorescence polarisation probe displacement; 100 nM N-terminal MLH1, 5 nM probe compound
T1 construct: recombinant N-terminal MLH1 (residues 15-340)
T1 sequence (P40692 15-340): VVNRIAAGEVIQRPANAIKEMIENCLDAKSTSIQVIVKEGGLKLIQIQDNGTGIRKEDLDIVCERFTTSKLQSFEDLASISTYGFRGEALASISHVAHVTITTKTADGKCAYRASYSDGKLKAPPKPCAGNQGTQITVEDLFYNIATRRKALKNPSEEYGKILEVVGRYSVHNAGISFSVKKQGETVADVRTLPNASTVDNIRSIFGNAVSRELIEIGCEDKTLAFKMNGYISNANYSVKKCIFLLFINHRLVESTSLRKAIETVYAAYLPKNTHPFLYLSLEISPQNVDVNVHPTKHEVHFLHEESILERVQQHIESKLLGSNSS
How it was run: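 FP displacement assay: 100 nM MLH1 (residues 15-340) preincubated 30 min at room temperature with compound in 25 mM HEPES pH 7.5, 250 mM NaCl, 10 mM MgCl2, 0.01% Triton X-100, 5 mM DTT, then 5 nM rhodamine-labelled probe added and read immediately. Data normalised to no-inhibitor and no-enzyme controls.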

[2] = biological target: T2, recombinant N-terminal PMS2 (residues 1-365) (Homo sapiens, UniProt P54278); experiment: Fluorescence Polarisation Assay for PMS2; type: binding; settings: fluorescence polarisation probe displacement; 10 nM N-terminal PMS2, 5 nM probe compound; read-out: PMS2 IC50
T2 construct: recombinant N-terminal PMS2 (residues 1-365)
T2 sequence (P54278 1-365): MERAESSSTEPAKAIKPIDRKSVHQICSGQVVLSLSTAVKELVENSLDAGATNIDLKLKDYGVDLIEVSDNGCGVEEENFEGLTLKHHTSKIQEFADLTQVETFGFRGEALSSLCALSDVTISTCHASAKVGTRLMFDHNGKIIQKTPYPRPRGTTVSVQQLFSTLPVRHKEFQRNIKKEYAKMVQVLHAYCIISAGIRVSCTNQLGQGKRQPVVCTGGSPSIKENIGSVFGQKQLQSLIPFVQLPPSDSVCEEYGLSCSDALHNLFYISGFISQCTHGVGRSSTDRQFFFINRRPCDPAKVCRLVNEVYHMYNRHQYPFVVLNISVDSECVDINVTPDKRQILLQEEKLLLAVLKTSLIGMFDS
How it was run: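 Competition fluorescence polarisation with 10 nM N-terminal PMS2 and 5 nM fluorescent probe (final), read after 1 h at room temperature following 30 min compound pre-incubation. Data normalised to no-inhibitor and no-enzyme controls; single-point screening or serial dilutions for potency.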

IC50 [1]: < 1000 nM | IC50 [2]: > 10 µM
SMILES: COCCCC(=O)N1CC[C@H](Nc2cccc3c2CN(C(=O)c2c(O)cc(O)cc2OCc2ccccc2)CC3)C1 [Example 151, (S)-1-(3-((2-(2-(Benzyloxy)-4,6-dihydroxybenzoyl)-1,2,3,4-tetrahydroisoquinolin-8-yl)amino)pyrrolidin-1-yl)-4-methoxybutan-1-one]
